Legend:
[1] = molecular target: T1, Mitogen-activated protein kinase 6 (Homo sapiens, UniProt Q16659); test: Binding affinity to recombinant wild-type ERK3 (9 to 327 residues) (unknown origin) expressed in Escherichia coli by microscale thermophoresis assay
[2] = molecular target: T1, Mitogen-activated protein kinase 6; test: Binding affinity to wild-type human partial length ERK3 (M1 to P413 residues) expressed in bacterial expression system by kinomescan method
[3] = molecular target: T1, Mitogen-activated protein kinase 6; test: Binding affinity to recombinant wild-type ERK3 (9 to 327 residues) (unknown origin) expressed in Sf21 insect cells by microscale thermophoresis assay
[4] = molecular target: T1, Mitogen-activated protein kinase 6; test: Binding affinity to LPP-dephosphorylated recombinant wild-type ERK3 (9 to 327 residues) (unknown origin) expressed in Escherichia coli by microscale thermophoresis assay

T1 sequence (Q16659 whole entry, the tested form may be a part): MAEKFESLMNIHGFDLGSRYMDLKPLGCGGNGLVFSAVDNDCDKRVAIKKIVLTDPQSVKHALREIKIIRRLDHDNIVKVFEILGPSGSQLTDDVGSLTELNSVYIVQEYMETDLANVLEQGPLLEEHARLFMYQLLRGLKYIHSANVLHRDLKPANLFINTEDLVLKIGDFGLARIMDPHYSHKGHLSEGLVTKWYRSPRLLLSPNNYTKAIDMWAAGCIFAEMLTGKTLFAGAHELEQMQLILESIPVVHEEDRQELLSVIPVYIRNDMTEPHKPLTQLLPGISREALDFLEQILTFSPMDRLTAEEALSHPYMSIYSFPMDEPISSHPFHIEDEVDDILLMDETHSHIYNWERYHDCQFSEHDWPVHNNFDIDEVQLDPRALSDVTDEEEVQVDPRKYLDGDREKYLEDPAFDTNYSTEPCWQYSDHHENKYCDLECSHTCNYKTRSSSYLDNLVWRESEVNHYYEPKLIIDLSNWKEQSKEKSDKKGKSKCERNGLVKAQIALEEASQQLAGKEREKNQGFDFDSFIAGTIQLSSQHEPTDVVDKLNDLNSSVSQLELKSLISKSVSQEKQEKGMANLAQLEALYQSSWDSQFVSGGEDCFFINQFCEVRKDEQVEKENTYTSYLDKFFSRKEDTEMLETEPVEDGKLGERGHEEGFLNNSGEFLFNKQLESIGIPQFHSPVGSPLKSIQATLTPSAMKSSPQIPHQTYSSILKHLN

Row | SMILES | Kd [1] [nM] | Kd [2] [nM] | Kd [3] [nM] | Kd [4] [nM]
1 | O=C(Nc1ccc2[nH]nc(-c3ccncc3)c2c1)[C@@H]1CCN(CC(=O)N2CCN(c3ccc(-c4ncccn4)cc3)CC2)C1 | 14300 | – | – | –
2 | COc1ccc(-n2nnc3cnc(N[C@H]4CC[C@H](C(N)=O)CC4)nc32)cc1 | 1300 | 980 | 1100 | 1500
3 | Nc1n[nH]c2nnc(-c3c(-c4ccccc4)nn4ccccc34)cc12 | – | – | – | > 10000
